Laboratory results from paper PMC10916402, “Meropenem-ANT3310, a unique β-lactam-β-lactamase inhibitor combination with expanded antibacterial spectrum against Gram-negative pathogens including carbapenem-resistant Acinetobacter baumannii” (Antimicrobial Agents and Chemotherapy, 2024).
Values joined by “and” are separate entries in the source; they are usually repeats but may differ in a detail not shown here. Equal entries are not always repeated.

Experiments:
[1] = tested on: A. baumannii clinical isolates; test: Broth microdilution MIC, A. baumannii clinical isolates; type: cell-based, Acinetobacter baumannii; details: for CLSI % Res: CLSI BP, for MEM-ANT3310 % at ≥16 µg/mL; for EUCAST % Res / EUCAST % Sus: EUCAST BP; for Number of isolates inhibited at MIC of >16 µg/mL: footnote c
Procedure: (§1) All isolates were randomly selected from the frozen culture collection of IHMA collected in 2018 and 2019. Matrix-assisted laser desorption ionization-time of flight mass spectrometry was used to confirm the identity of the organisms tested (Bruker Daltonics, Bremen, Germany).
(§2) MICs for all antimicrobial agents were determined at IHMA by broth microdilution in accordance with both CLSI ([17]) and EUCAST ([18]) guidelines. Microtiter panels were prepared by IHMA and stored at −70°C in cation-adjusted Mueller Hinton broth (CAMHB) (Becton Dickinson). Iron-depleted CAMHB was used to test cefiderocol. Panels containing ANT3310 were prepared fresh on the day of testing. […] MIC values corresponded to the first well with no visible growth. Quality control testing was performed on each day of testing with E. coli ATCC 25922, P. aeruginosa ATCC 27853, K. pneumoniae ATCC 700603 and BAA 1705, and A. baumannii NCTC 13304. MICs were interpreted using 2023 CLSI ([17]) and EUCAST ([18]) BPs.

[2] = tested on: carbapenem-resistant Acinetobacter baumannii (CRAB) clinical isolates; test: Broth microdilution MIC, CRAB isolates; type: cell-based; details: for CLSI % Res / EUCAST % Res / EUCAST % Sus / Number of isolates inhibited at MIC of >16 µg/mL: CRAB; for CLSI % Res: CLSI BP, for MEM-ANT3310 % at ≥16 µg/mL; for EUCAST % Res / EUCAST % Sus: EUCAST BP; for Number of isolates inhibited at MIC of >16 µg/mL: footnote c
Procedure: as §1, §2

[3] = tested on: KPC-producing Enterobacterales (KPC-CRE); test: organism not typed; type: cell-based; details: 180 KPC-producing Enterobacterales
Procedure: as §1, §2

[4] = tested on: OXA-producing Enterobacterales (OXA-CRE); test: organism not typed; type: cell-based; details: 252 OXA-producing Enterobacterales
Procedure: as §1, §2

[5] = tested on: P. aeruginosa clinical isolates; test: Broth microdilution MIC, P. aeruginosa clinical isolates; type: cell-based, Pseudomonas aeruginosa; details: 502 P. aeruginosa, 2019 global collection
Procedure: as §1, §2

[6] = 2018 Global collection, All A. baumannii, N 500
[7] = 2019 Global collection, All A. baumannii, N 405
[8] = CLSI BP, for MEM-ANT3310 % at ≥16 µg/mL

colistin was tested, and the MIC50 [1, 6] was 0.25 µg/mL, the MIC90 [1, 6] was 0.5 µg/mL and the “Number of isolates inhibited at MIC of 0.25 µg/mL” value [1, 6] was 287. For the same substance, the “Number of isolates inhibited at MIC of 0.5 µg/mL” value [1, 6] was 165, the “Number of isolates inhibited at MIC of 1 µg/mL” value [1, 6] was 15 and the “Number of isolates inhibited at MIC of 4 µg/mL” value [1, 6] was 3. For the same substance, the “Number of isolates inhibited at MIC of 8 µg/mL” value [1, 6] was 2, the “Number of isolates inhibited at MIC of 16 µg/mL” value [1, 6] was 2 and the “Number of isolates inhibited at MIC of ≤0.125 µg/mL” value [1, 6] was 22. The “CLSI % Res” value [1, 6] was 2.2%, the “EUCAST % Res” value [1, 6] was 2.2% and the “EUCAST % Sus” value [1, 6] was 97.8%. The “Number of isolates inhibited at MIC of >16 µg/mL” value [1, 6] was 4^c, the MIC50 [1, 7] was 0.5 µg/mL and the MIC90 [1, 7] was 1 µg/mL. The “Number of isolates inhibited at MIC of 0.25 µg/mL” value [1, 7] was 32, the “Number of isolates inhibited at MIC of 0.5 µg/mL” value [1, 7] was 296 and the “Number of isolates inhibited at MIC of 1 µg/mL” value [1, 7] was 66. For the same substance, the “Number of isolates inhibited at MIC of 2 µg/mL” value [1, 7] was 5, the “Number of isolates inhibited at MIC of 4 µg/mL” value [1, 7] was 1 and the “Number of isolates inhibited at MIC of 16 µg/mL” value [1, 7] was 1. The “CLSI % Res” value [1, 7] was 1.5%, the “EUCAST % Res” value [1, 7] was 1.5% and the “EUCAST % Sus” value [1, 7] was 98.5%. The “Number of isolates inhibited at MIC of >16 µg/mL” value [1, 7] was 4^c, the “% susceptible at EUCAST BP” value ([1]; A. baumannii, 2018/2019 collections) was 98.1% and the MIC90 ([1]; A. baumannii, one or both of the 2018/2019 collections) was 1 µg/mL. The MIC50 [2] was 0.25 µg/mL and 0.5 µg/mL, the MIC90 [2] was 0.5 µg/mL and 1 µg/mL and the “Number of isolates inhibited at MIC of 4 µg/mL” value [2] was 2. The “Number of isolates inhibited at MIC of 8 µg/mL” value [2] was 2, the “Number of isolates inhibited at MIC of 16 µg/mL” value [2] was 2 and the “Number of isolates inhibited at MIC of ≤0.125 µg/mL” value [2] was 13. The “CLSI % Res” value ([2]; 2018 Global collection, N 363) was 2.8%, the “EUCAST % Res” value ([2]; 2018 Global collection, N 363) was 2.8% and the “EUCAST % Sus” value ([2]; 2018 Global collection, N 363) was 97.2%. For the same substance, the “Number of isolates inhibited at MIC of >16 µg/mL” value ([2]; 2018 Global collection, N 363) was 4^c, the “Number of isolates inhibited at MIC of 2 µg/mL” value ([2]; 2019 Global collection, CRAB (MEM MICs >4 µg/mL), N 340) was 4 and the “CLSI % Res” value ([2]; 2019 Global collection, N 340) was 1.2%. The “EUCAST % Res” value ([2]; 2019 Global collection, N 340) was 1.2%, the “EUCAST % Sus” value ([2]; 2019 Global collection, N 340) was 98.8% and the “Number of isolates inhibited at MIC of >16 µg/mL” value ([2]; 2019 Global collection, N 340) was 4^c. The MIC50 ([3]; 2018 global collection) was 0.25 µg/mL, the MIC90 ([3]; 2018 global collection) was 16 µg/mL and the “CLSI % Res” value [3, 8] was 26.7%. The “EUCAST % Res” value ([3]; EUCAST BP) was 26.7%, the “EUCAST % Sus” value ([3]; EUCAST BP) was 73.3% and the MIC50 ([4]; 2018 global collection) was 0.25 µg/mL. The MIC90 ([4]; 2018 global collection) was 8 µg/mL, the “CLSI % Res” value [4, 8] was 23.8% and the “EUCAST % Res” value ([4]; EUCAST BP) was 23.8%. The “EUCAST % Sus” value ([4]; EUCAST BP) was 76.2%, the MIC50 [5] was 1 µg/mL and the MIC90 [5] was 1 µg/mL. For the same substance, the “Number of isolates inhibited at MIC of 0.25 µg/mL” value [5] was 4, the “Number of isolates inhibited at MIC of 0.5 µg/mL” value [5] was 21 and the “Number of isolates inhibited at MIC of 1 µg/mL” value [5] was 452. The “Number of isolates inhibited at MIC of 2 µg/mL” value [5] was 21, the “Number of isolates inhibited at MIC of 4 µg/mL” value [5] was 2 and the “Number of isolates inhibited at MIC of 16 µg/mL” value [5] was 1. For the same substance, the “Number of isolates inhibited at MIC of ≤0.125 µg/mL” value [5] was 1.
